#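 Test compounds were applied to cells in 96-well plates for 48 hours at 5 doses. GI50: concentration for 50% inhibition of growth.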 Calls of active or inactive are those of the source. Cut-off read from the data, not from the text of the source: active = GI50 up to about 1.1 µM and inactive = higher.
# Columns and labels:
# Test in all cases: NCI tumour cell line growth inhibition, 48 h
# 786-0 = tested on: 786-0
# A498 = tested on: A498
# A549 = tested on: A549
# ACHN = tested on: ACHN
# CAKI-1 = tested on: CAKI-1
# CCRF-CEM = tested on: CCRF-CEM
# COLO 205 = tested on: COLO 205
# DLD-1 = tested on: DLD-1
# DMS-114 = tested on: DMS-114
# DMS-273 = tested on: DMS-273
# EKVX = tested on: EKVX
# HCC 2998 = tested on: HCC 2998
# HCT-116 = tested on: HCT-116
# HCT-15 = tested on: HCT-15
# HL-60 = tested on: HL-60
# HOP-18 = tested on: HOP-18
# HOP-62 = tested on: HOP-62
# HOP-92 = tested on: HOP-92
# HT-29 = tested on: HT-29
# IGROV-1 = tested on: IGROV-1
# K562 = tested on: K562
# KM-20L2 = tested on: KM-20L2
# KM12 = tested on: KM12
# LOX IMVI = tested on: LOX IMVI
# LXFL 529 = tested on: LXFL 529
# M14 = tested on: M14
# M19-MEL = tested on: M19-MEL
# MOLT-4 = tested on: MOLT-4
# Malme-3M = tested on: Malme-3M
# NCI-H226 = tested on: NCI-H226
# NCI-H23 = tested on: NCI-H23
# NCI-H460 = tested on: NCI-H460
# NCI-H522 = tested on: NCI-H522
# OVCAR-3 = tested on: OVCAR-3
# OVCAR-4 = tested on: OVCAR-4
# OVCAR-5 = tested on: OVCAR-5
# OVCAR-8 = tested on: OVCAR-8
# RPMI-8226 = tested on: RPMI-8226
# RXF 393 = tested on: RXF 393
# RXF 631 = tested on: RXF 631
# SF-268 = tested on: SF-268
# SF-295 = tested on: SF-295
# SK-MEL-28 = tested on: SK-MEL-28
# SK-MEL-2 = tested on: SK-MEL-2
# SK-MEL-5 = tested on: SK-MEL-5
# SK-OV-3 = tested on: SK-OV-3
# SN12C = tested on: SN12C
# SNB-19 = tested on: SNB-19
# SNB-75 = tested on: SNB-75
# SNB-78 = tested on: SNB-78
# SR = tested on: SR
# SW-620 = tested on: SW-620
# TK-10 = tested on: TK-10
# U-251 = tested on: U-251
# UACC-257 = tested on: UACC-257
# UACC-62 = tested on: UACC-62
# UO-31 = tested on: UO-31
smiles,measurement,setting,value
CCCCCCCC[N+](C)(C)Cc1ccc(C[N+](C)(C)CCCCCCCC)cc1,GI50,786-0,> 100 µM (inactive)
same,GI50,A498,38.1 µM (inactive)
same,GI50,A549,32.8 µM (inactive)
same,GI50,ACHN,> 100 µM (inactive)
same,GI50,CAKI-1,45.4 µM (inactive)
same,GI50,CCRF-CEM,> 100 µM (inactive)
same,GI50,COLO 205,1.76 µM (inactive)
same,GI50,DLD-1,35.4 µM (inactive)
same,GI50,DMS-114,8.67 µM (inactive)
same,GI50,DMS-273,3.84 µM (inactive)
same,GI50,EKVX,> 100 µM (inactive)
same,GI50,HCC 2998,31.5 µM (inactive)
same,GI50,HCT-116,> 100 µM (inactive)
same,GI50,HCT-15,> 100 µM
same,GI50,HL-60,36.4 µM (inactive)
same,GI50,HOP-18,> 100 µM (inactive)
same,GI50,HOP-62,4.11 µM (inactive)
same,GI50,HOP-92,32.7 µM (inactive)
same,GI50,HT-29,6.03 µM (inactive)
same,GI50,IGROV-1,13.4 µM (inactive)
same,GI50,K562,28.4 µM (inactive)
same,GI50,KM-20L2,7.71 µM (inactive)
same,GI50,KM12,11.7 µM (inactive)
same,GI50,LOX IMVI,84.5 µM (inactive)
same,GI50,LXFL 529,14.6 µM (inactive)
same,GI50,M14,85.9 µM (inactive)
same,GI50,M19-MEL,31.3 µM (inactive)
same,GI50,MOLT-4,43.9 µM (inactive)
same,GI50,Malme-3M,95.3 µM (inactive)
same,GI50,NCI-H226,34.5 µM (inactive)
same,GI50,NCI-H23,4.55 µM (inactive)
same,GI50,NCI-H460,28.6 µM (inactive)
same,GI50,NCI-H522,5.58 µM (inactive)
same,GI50,OVCAR-3,29.6 µM (inactive)
same,GI50,OVCAR-4,18.6 µM (inactive)
same,GI50,OVCAR-5,> 100 µM (inactive)
same,GI50,OVCAR-8,15.6 µM (inactive)
same,GI50,RPMI-8226,90.2 µM (inactive)
same,GI50,RXF 393,78.7 µM (inactive)
same,GI50,RXF 631,> 100 µM (inactive)
same,GI50,SF-268,> 100 µM (inactive)
same,GI50,SF-295,63.4 µM (inactive)
same,GI50,SK-MEL-28,> 100 µM (inactive)
same,GI50,SK-MEL-2,14.9 µM (inactive)
same,GI50,SK-MEL-5,36.7 µM (inactive)
same,GI50,SK-OV-3,69.7 µM (inactive)
same,GI50,SN12C,7.33 µM (inactive)
same,GI50,SNB-19,24.6 µM (inactive)
same,GI50,SNB-75,15.8 µM (inactive)
same,GI50,SNB-78,44.3 µM (inactive)
same,GI50,SR,> 100 µM (inactive)
same,GI50,SW-620,91.2 µM (inactive)
same,GI50,TK-10,86.9 µM (inactive)
same,GI50,U-251,6.53 µM (inactive)
same,GI50,UACC-257,41.9 µM (inactive)
same,GI50,UACC-62,77.8 µM (inactive)
same,GI50,UO-31,> 100 µM (inactive)

# Reference: ChEMBL document CHEMBL1201862, “PubChem BioAssay data set” (2004)
